Assay results taken from article PMC9694579 (Microorganisms, 2022).
Read-outs that look alike come from different tables or passages of the source.

Legend:
in vitro [1] = conditions: human
in vitro [2] = conditions: African green monkey
in vitro [3] = conditions: human; remark: listed apart in the source
YFV [4] = test: microbe, parasite or virus in culture; type: cell-based, Yellow fever virus strain 17D; conditions: for EC50: read-out: Anti-YFV Activity (Huh-7) EC50; for EC90: read-out: Anti-YFV Activity (Huh-7) EC90
MDM = conditions: human
YFV [5] = test: microbe, parasite or virus in culture; type: cell-based, Yellow fever virus strain 17D; conditions: Yellow fever virus, Macrophage; for EC50: read-out: EC50, YFV replication in MDM
in vitro [6] = conditions: human; remark: listed apart in the source
in vitro [7] = conditions: human; for CC50: Cytotoxicity CC50 Huh-7
YFV 17D = conditions: mouse, in vivo
YFV [8] = test: microbe, parasite or virus in culture; type: cell-based, Yellow fever virus strain 17D; conditions: Yellow fever virus, Huh-7, 72 h, read-out: EC50 in 3D cultures
Huh-7 cells [9] = conditions: cited from earlier work
[10] = system: primary human hepatocytes; conditions: cited from earlier work
Huh-7 cells [11] = conditions: human
YFV [12] = conditions: cited from earlier work
[13] = system: primary human hepatocytes
YFV [14] = test: microbe, parasite or virus in culture; type: cell-based; conditions: Yellow fever virus, RD, read-out: EC50, inhibition of YFV replication in RD cells
YFV [15] = conditions: mouse, in vivo; cited from earlier work
Huh-7 cells [16] = conditions: human; remark: listed apart in the source
[17] = Yellow fever virus, Huh-7, 72 h

Row | Compound | CC50 (in vitro [1]) [µM] | CC50 (in vitro [2]) [µM] | CC50 (in vitro [3]) [µM] | EC50 (YFV [4]; [17]) [µM] | EC90 (YFV [4]; [17]) [µM] | CC50 (in vitro [7]) [µM] | NTP formation in Huh-7 cells (Huh-7 cells [11]) [pmol / 10^6 cells] | further results
1 | CC(C)OC(=O)[C@H](C)NP(=O)(OC[C@H]1O[C@@H](n2ccc(=O)[nH]c2=O)[C@](F)(Br)[C@@H]1O)Oc1ccccc1 (some centres unmarked) [Compound 11] | > 100 | > 100 | > 100 | > 10 | > 10 | – | – | –
2 | CC(C)OC(=O)[C@H](C)N[P@](=O)(OC[C@H]1O[C@@H](n2ccc(=O)[nH]c2=O)[C@@](F)(Br)[C@@H]1O)Oc1ccccc1 [Compound 9] | > 100 | > 100 | > 100 | 0.85 | 7.8 ± 3.6 | – | – | Cytotoxicity in MDM (MDM): no notable cytotoxicity up to 100 µM; EC50 (YFV [5]): 0.4 ± 0.1 µM; EC90 (YFV [5]; read-out: EC90, YFV replication in MDM): 1.5 ± 0.6 µM; viability at 100 µM (in vitro [6]): 84.3 ± 0.9%; viability at 100 µM (in vitro [7]): 87.1%; Immune cell infiltration into the liver (YFV 17D): significantly reduced; Impact on total circulating leukocytes (YFV 17D): no adverse impact; Impact on weight loss (YFV 17D): no adverse impact; Levels of serum transaminase (ALT) (YFV 17D): reduced; Percentage of mice with absent inflammatory cell infiltration in the liver (YFV 17D): 25%; Percentage of mice with mild inflammatory cell infiltration in the liver (YFV 17D): 50%; Percentage of mice with minimum inflammatory cell infiltration in the liver (YFV 17D): 25%; YFV genome copy levels (virus load) in liver (YFV 17D): significant reduction; EC50 (YFV [4]): 0.9 ± 0.8 µM; EC50 (YFV [8]): 3.2 µM; NTP formed in Huh-7 cells (Huh-7 cells [9]): 646 ± 107 pmol/10^6 cells; NTP formed in primary hepatocytes [10]: 3206 ± 247 pmol/10^6 cells
3 | O=c1ccn([C@@H]2O[C@H](CO)[C@@H](O)[C@]2(F)Cl)c(=O)[nH]1 [Compound 4] | > 100 | > 100 | > 100 | > 10 | > 10 | > 100 | 0.5 | –
4 | CC(C)OC(=O)[C@H](C)NP(=O)(OC[C@H]1O[C@@H](n2ccc(=O)[nH]c2=O)[C@@](F)(Cl)[C@@H]1O)Oc1ccccc1 (some centres unmarked) [Compound 5] | > 100 | > 100 | > 100 | 0.4 ± 0.2 | 6.5 ± 2.6 | – | 866.2 | Reduction of CPE in RD cell line (YFV [12]): < 2%; NTP formation in primary human hepatocytes [13]: 5245.0 pmol / 10^6 cells; EC50 (YFV [14]): 0.5 ± 0.2 µM
5 | CC(C)OC(=O)[C@H](C)NP(=O)(OC[C@H]1O[C@@H](n2ccc(=O)[nH]c2=O)[C@](F)(Cl)[C@@H]1O)Oc1ccccc1 (some centres unmarked) [Compound 7] | > 100 | > 100 | > 100 | > 10 | > 10 | – | – | –
6 | O=c1ccn([C@@H]2O[C@H](CO)[C@@H](O)[C@@]2(F)Br)c(=O)[nH]1 [Compound 10] | > 100 | > 100 | > 100 | > 10 | > 10 | > 100 | – | –
7 | CC(C)OC(=O)[C@H](C)N[P@](=O)(OC[C@H]1O[C@@H](n2ccc(=O)[nH]c2=O)[C@](C)(F)[C@@H]1O)Oc1ccccc1 [Sofosbuvir, sofosbuvir, reference compound] | > 100 | > 100 | > 100 | 0.6 ± 0.6 | 3.5 ± 1.5 | < 100 | 317.2 | Viral burden in sera, livers, kidneys and spleens (YFV [15]): failed to reduce viral burden; EC50 (YFV [5]): 0.4 ± 0.3 µM; CC50 (Huh-7 cells [16]): 88.5 ± 11.6 µM; NTP formation in primary human hepatocytes [13]: 2230.0 pmol / 10^6 cells
8 | O=c1ccn([C@@H]2O[C@H](CO)[C@@H](O)[C@]2(F)Br)c(=O)[nH]1 [Compound 8] | > 100 | > 100 | > 100 | > 10 | > 10 | > 100 | – | –
9 | O=c1ccn([C@@H]2O[C@H](CO)[C@@H](O)[C@@]2(F)Cl)c(=O)[nH]1 [Compound 6] | > 100 | > 100 | > 100 | > 10 | > 10 | > 100 | – | –
10 | CC(C)OC(=O)[C@H](C)NP(=O)(OC[C@H]1O[C@@H](n2ccc(=O)[nH]c2=O)C(Cl)(Cl)[C@@H]1O)Oc1ccccc1 (some centres unmarked) [Compound 3] | > 100 | > 100 | > 100 | 0.4 ± 0.5 | 3.2 ± 2.7 | > 100 | 39.7 | NTP formation in primary human hepatocytes [13]: 622.0 pmol / 10^6 cells
11 | O=c1ccn([C@@H]2O[C@H](CO)[C@@H](O)C2(Cl)Cl)c(=O)[nH]1 [Compound 2] | > 100 | > 100 | > 100 | > 10 | > 10 | > 100 | 0.5 | –
